From patent publication US12336973B2, “Cancer therapeutic compositions and methods targeting DNAse1L3” (Providence Health & Services—Oregon, priority 2020, dated 2025)

Test system: dendritic cells
Test: Dendritic cell maturation (CCR7 expression by flow cytometry) in co-culture with untreated or irradiated cancer cells
Type: cell-based
Settings: DCs cultured with untreated (0Gy) or irradiated (8Gy) cancer cells; 0, 50 or 100 micromolar FCA; flow cytometry 24 hours after culturing
Description: FIG. 4 depicts CCR7 expression in DCs that were cultured with cancer cells, where the cancer cells were untreated (0Gy) or irradiated (8Gy). These co-cultures were treated with 0, 50, or 100 micromolar Fmoc-d-cyclohexylalanine (FCA) to inhibit DNAse1L3.
Dendritic cells were cultured (with untreated or irradiated cancer cells) and treated with increasing doses of FCA, an inhibitor of DNAse1L3 (FIG. 4). Cancer cells were co-cultured with dendritic cells and were treated with 0, 50, or 100 micromolar Fmoc-d-cyclohexylalanine (FCA) to inhibit DNAse1L3.
CCR7 expression on DCs was assessed by flow cytometry 24 hours after culturing.

## O=C(N[C@H](CC1CCCCC1)C(=O)O)OCC1c2ccccc2-c2ccccc21 [FCA, Fmoc-d-cyclohexylalanine]
  dendritic cell maturation assessed by upregulation of markers including CCR7: stimulates DC maturation
